Columns and labels:
Androgen receptor [1] = molecular target: T1, Androgen receptor (Homo sapiens, UniProt P10275, T878A); test: Binding affinity to bicalutamide-resistant Androgen receptor T878A mutant (unknown origin)
Androgen receptor [2] = molecular target: T2, Androgen receptor (Homo sapiens, UniProt P10275); test: Binding affinity to wild-type Androgen receptor (unknown origin)
T2 sequence (P10275 whole entry): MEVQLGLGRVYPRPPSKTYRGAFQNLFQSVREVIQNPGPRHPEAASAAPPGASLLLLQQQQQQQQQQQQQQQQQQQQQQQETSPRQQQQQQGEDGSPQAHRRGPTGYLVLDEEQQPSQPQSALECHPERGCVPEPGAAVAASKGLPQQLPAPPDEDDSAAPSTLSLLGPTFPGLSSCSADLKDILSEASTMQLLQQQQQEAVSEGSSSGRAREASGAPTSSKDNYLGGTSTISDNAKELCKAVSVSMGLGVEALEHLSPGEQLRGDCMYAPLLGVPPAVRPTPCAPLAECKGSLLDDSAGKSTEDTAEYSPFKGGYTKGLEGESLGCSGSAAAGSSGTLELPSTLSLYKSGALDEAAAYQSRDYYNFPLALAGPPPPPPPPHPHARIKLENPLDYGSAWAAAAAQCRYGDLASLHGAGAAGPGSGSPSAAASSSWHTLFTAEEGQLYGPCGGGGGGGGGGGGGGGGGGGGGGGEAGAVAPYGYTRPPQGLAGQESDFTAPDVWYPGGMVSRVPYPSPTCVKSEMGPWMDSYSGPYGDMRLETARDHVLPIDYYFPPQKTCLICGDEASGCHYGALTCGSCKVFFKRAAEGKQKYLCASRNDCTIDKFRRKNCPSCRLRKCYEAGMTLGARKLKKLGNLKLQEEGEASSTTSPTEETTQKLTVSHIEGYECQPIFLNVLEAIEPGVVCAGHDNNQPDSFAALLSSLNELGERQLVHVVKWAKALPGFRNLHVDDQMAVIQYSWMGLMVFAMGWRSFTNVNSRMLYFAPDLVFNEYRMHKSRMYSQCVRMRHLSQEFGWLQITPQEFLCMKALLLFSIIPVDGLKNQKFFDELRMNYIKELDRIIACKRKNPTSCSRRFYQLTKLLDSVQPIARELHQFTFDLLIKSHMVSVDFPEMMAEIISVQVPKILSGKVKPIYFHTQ

LNCaP [3] = test: Antiproliferative activity against human LNCaP cells expressing wild-type Androgen receptor; assay type: functional, cell-based
LNCaP [4] = test: Antiproliferative activity against human LNCaP cells expressing Androgen receptor T878A mutant; assay type: functional, cell-based
Androgen receptor [5] = molecular target: T2, Androgen receptor; test: Agonist activity at Androgen receptor in human 22Rv1 cells cotransfected with pARE-LUC measured by luciferase assay; assay type: cell-based
[6] = Oral bioavailability in dog; assay type: ADME, organism-based, Canis lupus familiaris; details: in vivo
Androgen receptor [7] = molecular target: T2, Androgen receptor; test: Antagonist activity at Androgen receptor (unknown origin) assessed as downregulation of AR
Rattus norvegicus [8] = test: Antagonist activity in mature male Sprague-Dawley rat assessed as decrease in seminal vesicle and prostate weight at 1 mg/kg, po administered once a day for 14 days; assay type: functional; parameters: scale not given: the % may be the effect or the level left; details: time 14 day
Androgen receptor [9] = molecular target: T2, Androgen receptor; test: Antagonist activity at Androgen receptor in human MDA-MB-453 cells measured by SEAP reporter gene assay; assay type: cell-based
Rattus norvegicus [10] = test: Antagonist activity in mature male Sprague-Dawley rat assessed as decrease in seminal vesicle and prostate weight at 10 mg/kg, po administered once a day for 14 days; assay type: functional; parameters: scale not given: the % may be the effect or the level left; details: time 14 day
Androgen receptor [11] = molecular target: T2, Androgen receptor; test: Antagonist activity at Androgen receptor in human LNCaP cells measured by SEAP reporter gene assay; assay type: cell-based
Androgen receptor [12] = molecular target: T2, Androgen receptor; test: Displacement of [3H]DHT from Androgen receptor expressed in human MDA-MB-453 cells; assay type: cell-based
[13] = Antitumor activity against bicalutamide-resistant human LNCaP-cxD2 cells xenografted in mouse at 50 mg/kg, po administered for 28 days; assay type: functional; details: time 28 day
Androgen receptor [14] = molecular target: T2, Androgen receptor; test: Antagonist activity at wild-type Androgen receptor (unknown origin) expressed in African green monkey COS-7 cells measured as gene transcription level; assay type: cell-based
[15] = Antitumor activity against bicalutamide-resistant human LNCaP-cxD2 cells xenografted in mouse at 40 mg/kg, po administered for 28 days; assay type: functional; details: time 28 day
Androgen receptor [16] = molecular target: T2, Androgen receptor
Description: Antagonist activity at Androgen receptor in human LNCaP cells assessed as inhibition of PSA expression

[17] = Antitumor activity against bicalutamide-resistant human LNCaP-cxD2 cells xenografted in mouse at 25 mg/kg, po administered for 28 days; assay type: functional; details: time 28 day
Androgen receptor [18] = molecular target: T1, Androgen receptor; test: Binding affinity to bicalutamide-resistant Androgen receptor T877A mutant (unknown origin)
Androgen receptor [19] = molecular target: T1, Androgen receptor; test: Antagonist activity at Androgen receptor T877A mutant (unknown origin) expressed in African green monkey COS-7 cells measured as gene transcription level; assay type: cell-based
Androgen receptor [20] = molecular target: T2, Androgen receptor; assay type: cell-based, LNCaP C4-2
Description: Antagonist activity at Androgen receptor in human LNCaP C4-2 cells transfected with PSA6.1-luc and pRL-TK measured by luciferase gene reporter assay

[21] = molecular target: T3, Androgen receptor (Homo sapiens) (UniProt P10275); test: Antagonist activity at Androgen receptor (unknown origin) at 10 uM relative to control; parameters: scale not given: the % may be the effect or the level left; details: filed as antagonist
T3 sequence (whole entry): T2 sequence (P10275 whole entry)

[22] = molecular target: T3, Androgen receptor (Homo sapiens); test: Agonist activity at Androgen receptor (unknown origin) in presence of DHT
[23] = Antitumor activity against human CWR22Rv cells xenografted in mouse at 10 mg/kg, ip administered for 21 days; assay type: functional; details: time 21 day
LNCaP [24] = test: Antiproliferative activity against human LNCaP cells after 5 days by MTS assay; assay type: functional; details: time 5 day
LNCaP C4-2 = test: Antiproliferative activity against AR-independent human LNCaP C4-2 cells after 5 days by MTS assay; assay type: functional, cell-based; details: LNCaP C4-2, 120 h
HEK-293T = test: Antiproliferative activity against NTD-over expressed human HEK293T cells after 5 days by MTS assay; assay type: functional, cell-based; details: 120 h
[25] = Antiproliferative activity against AR-independent human CWR22Rv cells after 5 days by MTS assay; assay type: functional, cell-based; details: 120 h
[26] = In vivo agonist activity at Androgen receptor in castrated male rat assessed as increase in prostate weight at 0.76 mg administered orally per day; assay type: functional; details: route po
[27] = In vivo agonist activity at Androgen receptor in castrated rat assessed as increase in levator ani muscle weight at 0.11 mg administered orally per day for 14 days; assay type: functional; details: route po, time 14 day
[28] = Antiproliferative activity against androgen-sensitive mouse SEM-107 cells; assay type: functional, cell-based
T47D = test: Antiproliferative activity against human T47D cells; assay type: functional, cell-based
[29] = molecular target: T3, Androgen receptor (Homo sapiens); test: Displacement of [3H]DHT from Androgen receptor (unknown origin) relative to control; details: filed as antagonist
Androgen receptor [30] = molecular target: T2, Androgen receptor; test: Antagonist activity at Androgen receptor (unknown origin) in African green monkey COS-1 cells; assay type: cell-based
Androgen receptor [31] = molecular target: T2, Androgen receptor; test: Antagonist activity at Androgen receptor in human LNCaP cells assessed as inhibition of Binding Function 3 (BF3) of AR measured by luciferase assay; assay type: cell-based
Androgen receptor [32] = molecular target: T2, Androgen receptor; test: Antagonist activity at Androgen receptor (unknown origin) assessed as inhibition of activation function 1 (AF-1) of AR N-terminal transactivation domain (NTD)

T1 sequence (P10275 whole entry T878A): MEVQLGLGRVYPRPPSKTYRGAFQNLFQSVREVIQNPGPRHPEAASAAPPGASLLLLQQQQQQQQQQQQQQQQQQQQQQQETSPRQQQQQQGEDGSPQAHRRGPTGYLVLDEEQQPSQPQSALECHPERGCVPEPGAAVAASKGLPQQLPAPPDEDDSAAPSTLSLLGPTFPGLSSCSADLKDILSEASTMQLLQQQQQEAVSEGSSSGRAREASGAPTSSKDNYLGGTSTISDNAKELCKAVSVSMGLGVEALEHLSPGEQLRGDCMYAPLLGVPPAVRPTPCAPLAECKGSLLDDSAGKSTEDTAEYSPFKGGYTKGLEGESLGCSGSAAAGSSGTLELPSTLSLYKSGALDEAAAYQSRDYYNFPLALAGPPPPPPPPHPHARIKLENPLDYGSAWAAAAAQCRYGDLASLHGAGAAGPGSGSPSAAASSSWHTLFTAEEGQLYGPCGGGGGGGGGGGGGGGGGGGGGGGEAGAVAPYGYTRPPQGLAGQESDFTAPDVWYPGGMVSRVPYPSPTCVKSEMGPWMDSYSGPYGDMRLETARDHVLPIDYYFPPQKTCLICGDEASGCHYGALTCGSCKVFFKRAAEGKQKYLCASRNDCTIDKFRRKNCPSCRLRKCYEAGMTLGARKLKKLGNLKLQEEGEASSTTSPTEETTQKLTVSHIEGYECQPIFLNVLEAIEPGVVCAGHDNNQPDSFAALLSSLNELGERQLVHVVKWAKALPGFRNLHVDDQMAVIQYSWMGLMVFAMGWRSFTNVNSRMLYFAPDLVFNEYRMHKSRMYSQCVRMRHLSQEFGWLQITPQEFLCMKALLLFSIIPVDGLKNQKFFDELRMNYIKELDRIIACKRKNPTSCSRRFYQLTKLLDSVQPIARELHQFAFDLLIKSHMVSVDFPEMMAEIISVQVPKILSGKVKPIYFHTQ

CNC(=O)c1ccc([C@]2(O)CCN(c3ccc(C#N)c(Cl)c3)[C@H]2C)cn1
IC50 (Androgen receptor [1]): 1700 nM
IC50 (Androgen receptor [2]): 830 nM
IC50 (LNCaP [3]): 290 nM
IC50 (LNCaP [4]): 1700 nM

CCCN(CC(F)(F)F)c1cc(Br)c(C#N)s1
IC50 (Androgen receptor [5]): 10 nM

CC(=O)N1CCN(CCOc2ccc(C3CCN(C4=Nn5c(nnc5C(F)(F)F)CC4)CC3)cc2)CC1 [AZD3514]
bioavailability [6]: 75%
IC50 (Androgen receptor [7]): > 1780 nM

CCS(=O)(=O)N[C@@H]1C[C@@]2(C)O[C@]1(C)[C@@H]1C(=O)N(c3ccc(C#N)c(C(F)(F)F)c3)C(=O)[C@@H]12
Activity (Rattus norvegicus [8]): 42%
IC50 (Androgen receptor [9]): 16 nM
Activity (Rattus norvegicus [10]): 74%
IC50 (Androgen receptor [11]): 153 nM
Ki (Androgen receptor [12]): 1.7 nM

Cc1nn(-c2ccc(C#N)c(Cl)c2)c(C)c1Oc1ccc(C(=O)NC(C)(C)C)cn1
T/C [13]: 17%
IC50 (Androgen receptor [2]): 430 nM
IC50 (Androgen receptor [14]): 1000 nM

Cc1nn(-c2ccc(C#N)c(Cl)c2)c(C)c1Cc1ccc(C(=O)NCC(C)(C)O)cc1
T/C [15]: 23%

NS(=O)(=O)c1cccc2cc(SCCOc3ccccc3)[nH]c12
IC50 (Androgen receptor [16]): 530 nM

Cc1c(C#N)c(-c2ccc(C#N)cc2)c(C)n1-c1cnc(Cl)c(CO)c1
T/C [17]: 15%
IC50 (Androgen receptor [18]): 100 nM
IC50 (Androgen receptor [2]): 37 nM
IC50 (Androgen receptor [14]): 25 nM
IC50 (Androgen receptor [19]): 110 nM

Cc1ccc(Cl)cc1N1CCN(C(=O)[C@@H]2C[C@@H]2c2ccc(F)cc2)CC1
EC50 (Androgen receptor [20]): 1700 nM

CCOc1ccc2c(c1OC(C)C)CCN(c1ccc(C(=O)Nc3cccc(C)n3)cn1)C2
Activity [21]: > 95%
Activity [22]: < 5%
T/C [23]: 65%
Activity (LNCaP [24]): >90%
IC50 (LNCaP C4-2): 1000 nM
IC50 (HEK-293T): 780 nM
IC50 [25]: 1000 nM

C[C@@]1(C(=O)Nc2ccc(C#N)c(C(F)(F)F)c2)CC(C(F)(F)F)=NN1
Activity [26]: 51%
Activity [27]: 90%

CC(C)(O)C(=O)Nc1ccc([N+](=O)[O-])c(C(F)(F)F)c1 [HYDROXYFLUTAMIDE]
IC50 [28]: 84 nM
IC50 (T47D): 45 nM

N#Cc1ccc(C2=NO[C@H]3CCCC[C@@H]23)cc1C(F)(F)F
Activity [29]: 99.2%
IC50 (Androgen receptor [30]): 27.5 nM

CCS(=O)(=O)Nc1cccc(-c2cc(=O)n(-c3ccc(Cl)c(Cl)c3)nc2C)c1
IC50 (Androgen receptor [31]): 6260 nM

CC(=O)OC[C@H](COc1ccc(C(C)(C)c2ccc(OC[C@@H](CCl)OC(C)=O)cc2)cc1)OC(C)=O [RALANITEN ACETATE]
IC50 (Androgen receptor [32]): 9600 nM

Source: ChEMBL document CHEMBL5137058, “Therapeutic Strategies to Target the Androgen Receptor” (J Med Chem, 2022)
